Target: T1, Steroid 17-alpha-hydroxylase/17,20 lyase (Homo sapiens, UniProt P05093)
T1 sequence (P05093 whole entry): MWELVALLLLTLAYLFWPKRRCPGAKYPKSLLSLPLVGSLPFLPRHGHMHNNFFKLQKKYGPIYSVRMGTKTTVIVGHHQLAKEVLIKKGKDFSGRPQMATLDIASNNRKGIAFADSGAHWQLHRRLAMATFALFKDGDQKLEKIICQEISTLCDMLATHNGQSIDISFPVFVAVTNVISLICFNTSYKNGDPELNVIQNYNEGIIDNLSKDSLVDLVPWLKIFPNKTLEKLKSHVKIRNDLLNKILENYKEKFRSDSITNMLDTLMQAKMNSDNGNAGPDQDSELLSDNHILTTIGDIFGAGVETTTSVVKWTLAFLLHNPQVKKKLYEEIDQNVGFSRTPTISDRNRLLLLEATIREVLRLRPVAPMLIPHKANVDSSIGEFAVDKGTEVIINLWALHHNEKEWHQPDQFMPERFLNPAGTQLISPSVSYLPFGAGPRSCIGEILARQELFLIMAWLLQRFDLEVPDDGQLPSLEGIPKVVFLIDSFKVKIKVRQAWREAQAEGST
Test: Inhibition of human Steroid 17-alpha-hydroxylase/17,20 lyase

C[C@]12CC[C@H](O)CC1=CC[C@@H]1[C@@H]2CC[C@]2(C)C(c3cccnc3)=CC[C@@H]12 [ABIRATERONE]
IC50: ~1 nM

Reference: ChEMBL document CHEMBL1128152, “Active-site conformation of 17-(3-pyridyl)androsta-5,16-dien-3-ol, a potent inhibitor of the P450 enzyme C17-hydroxylase/C17-20 lyase” (Bioorg Med Chem Lett, 1995)
